Test results reported in ChEMBL document CHEMBL1141806, “Gloeolactone, a New Epoxy Lactone from a Blue-Green Alga” (J Nat Prod, 1998).
Calls of active or inactive are those of the source. The calls are words filed in the database; no cut-off is given here.

Columns and labels:
[1] = system: Vibrio harveyi; experiment: Antimicrobial activity against Vibrio harveyi; format: functional, organism-based
[2] = Toxicity against brine shrimp at 125 ug/mL; format: organism-based; details: artemia, in vivo; read-out: Activity

CC/C=C\C[C@H]1O[C@@H]1/C=C/C1CCCCCCCC(=O)O1 (some centres not stated) [GLOEOLACTONE]
Activity [1]: inactive
mortality at 125 ug/mL [2]: 100%
